Assay results as given in ChEMBL document CHEMBL1124919, “Synthesis and biochemical studies of 7-substituted 4,6-androstadiene-3,17-diones as aromatase inhibitors” (J Med Chem, 1990).
pKi: −log10 of the molar value.

Tested on: not listed separately
Experiment: Apparent Km value was determined
Assay type: ADME

Structure (SMILES)	Km [nM]
C[C@]12CCC(=O)C=C1CC[C@@H]1[C@@H]2CC[C@]2(C)C(=O)CC[C@@H]12 [ANDROSTENEDIONE]	51

Target: T1, Aromatase (Homo sapiens, UniProt P11511)
T1 sequence (P11511 whole entry): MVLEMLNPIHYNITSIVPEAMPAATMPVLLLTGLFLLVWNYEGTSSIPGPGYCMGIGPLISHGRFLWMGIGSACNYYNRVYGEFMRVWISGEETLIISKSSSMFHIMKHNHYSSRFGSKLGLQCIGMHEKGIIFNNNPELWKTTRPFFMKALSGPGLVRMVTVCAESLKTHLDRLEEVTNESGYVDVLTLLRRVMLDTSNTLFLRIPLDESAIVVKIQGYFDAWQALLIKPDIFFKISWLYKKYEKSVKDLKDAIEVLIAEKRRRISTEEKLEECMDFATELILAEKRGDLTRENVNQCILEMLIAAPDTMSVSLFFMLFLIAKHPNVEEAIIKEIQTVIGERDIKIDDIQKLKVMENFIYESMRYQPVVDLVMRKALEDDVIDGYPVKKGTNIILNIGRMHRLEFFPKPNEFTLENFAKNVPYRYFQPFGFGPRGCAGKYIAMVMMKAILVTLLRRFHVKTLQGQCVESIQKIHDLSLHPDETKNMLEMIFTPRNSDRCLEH
Experiment: In vitro inhibition of human placental cytochrome P450 19A1

Structure (SMILES)	pKi
CC12CCC3C(C(CCc4ccc(N)cc4)=CC4=CC(=O)CCC43C)C1CCC2=O (configuration not stated)	7.06
CC12CCC3C(C(c4ccccc4)=CC4=CC(=O)CCC43C)C1CCC2=O (configuration not stated)	5.85
CC12CCC3C(C(CCc4ccccc4)=CC4=CC(=O)CCC43C)C1CCC2=O (configuration not stated)	6.76
CC12CCC3C(C(CCc4ccc([N+](=O)[O-])cc4)=CC4=CC(=O)CCC43C)C1CCC2=O (configuration not stated)	7.02
CC12CCC3C(C(Cc4ccc([N+](=O)[O-])cc4)=CC4=CC(=O)CCC43C)C1CCC2=O (configuration not stated)	7.03
CC12CCC3C(C(Cc4ccc(N)cc4)=CC4=CC(=O)CCC43C)C1CCC2=O (configuration not stated)	7.06
